Assay results taken from US7829688B2, “Peptides of CaV2.2 that inhibit pain” (The Board of Regents of the University of Texas System, priority 2004, dated 2010).
Ends that are not written are not given here.

Legend:
GST-Mint1-PDZ1/2 protein [1] = assay: ALPHA (AlphaScreen) assay of bio-NC peptide association with GST-Mint1-PDZ1/2; assay type: binding; conditions: with GST-Mint1-PDZ-1/2, 189 nM concentration
GST-Mint1-PDZ1/2 protein [2] = assay: HTRF assay of bio-NC peptide association with GST-Mint1-PDZ1/2; assay type: binding; conditions: 1000 nM with 1000 nM GST-Mint1-PDZ1/2
formalin response [3] = assay: Formalin assay in rats after i.v. (tail vein) injection of peptide; assay type: in vivo; conditions: rat, tail vein injection 1 mM
Protocol: FIG. 2—Supression of phase II, but not phase I formalin response in rats injected with R9-QDHWC peptide. The effect of i.v. administration of PBS, R9 (1 mM) or R9-QDHWC (1 mM) on phase I and phase II of the formalin assay. Phase I represents the period from 0-10 min following formalin injection and phase II represents the period from 11-60 min following formalin injection. N=4-7 rats per group. *** indicates a significant difference when compared to PBS injection (p<0.01).
As is shown in FIG. 2, the peptide R9-QDHWC (full sequence RRRRRRRRRQDHWC; SEQ ID NO_also inhibits phage II but not phase I responses in the rat formalin model. Male Sprague Dawley rats (175-225 gm) received a tail vein injection of either PBS, R9 (1 mM), or R9-QDHWC (1 mM) following which they were placed in a plexiglass observation chamber to allow for acclimation. Thirty minutes following the tail vein injection, the dorsal surface of one hind paw was injected with 50 ul of a 5% formalin solution. Observers, blind to drug treatment, scored the number of biting, licking, and scratching behaviors of the injected hindlimb and paw. Data were analyzed with SigmaStat Software (SPSS, Inc. v. 2.03) using ANOVA followed by a Tukey post hoc analysis.

[4] = system: mature hippocampal neuronal cultures; assay: FM1-43 imaging, double-staining protocol (synaptic function); assay type: cell-based; conditions: neurons incubated with 50 μM peptide for 15 min; 90 mM KCl stimulation
Source text: FIGS. 3A-D—Effects of R9-QDHWC peptides on synaptic function. Double-staining protocol is shown on the top. Results of first and second destaining are shown for representative puncta for control neurons (FIG. 3A), for neurons loaded with R9 peptide (FIG. 3B) and for neurons loaded with R9-QDHWC peptide (FIG. 3C). An average d2/d1 ratios are compared for all 3 groups of neurons (FIG. 3D).
An FM1-43 imaging was used to study synaptic effects of R9-QDHWC competitive peptide that corresponds to Mint-PDZ binding site on Cav2.2 subunit. In these experiments we adapted double-staining protocol from (Reuter, 1995). First the mature hippocampal neuronal cultures were stained with FM1-43 dye for 90 sec in the presence of 47 mM KCl (FIG. 3, top). Following staining and washout of the dye (10 min) the neurons were stimulated by 90 mM KCl and the initial rate of destaining (d1) was measured at each puncta (FIG. 3, top). After completion of the first destaining protocol, the same neuronal culture was re-stained with FM1-43 for 90 sec in the presence of 47 mM KCl. […] The initial rate of destaining (d2) was once again measured at each puncta (FIG. 3, top).
To compare the results obtained during first and second destaining protocols and to minimize puncta-to-puncta variability, the inventors calculated the d2/d1 ratios for each puncta.

formalin response [5] = assay: Formalin assay in mouse, test compound injected into the hindpaw; assay type: in vivo; conditions: hindpaw injection
Protocol: FIGS. 1A & 1B—Supression of phase II, but not phase I formalin response in mouse injected with R9-NC peptide. FIG. 1A. Sequence of R9-NC peptide. FIG. 1B. Results of formalin assay in control mouse (n=8) and mouse injected with R9-NC 60 min prior to formalin injection (n=8). Phase I response (1-10 min from formalin injection) and phase II response (11-60 min from formalin injection) are shown.
First, animals are injected with a 10 μM (20 μl) solution of the test compound (dissolved in PBS) in the dorsal surface of the hindpaw. One hour following the injection of the test compound, animals receive a formalin injection (20 μl of a 5% solution) into the dorsal surface of the hindpaw. The contralateral paw is not injected. Following injection, animals are immediately transferred to a plexiglass observation cage. Each animal is observed for a total of 60 minutes following formalin injection. The period spent biting, scratching, or licking the injected hindpaw is recorded (pain score). Data is presented as cumulative time spent biting, scratching, and licking in phase I (0-10 min) and phase II (11-60 min).
One hour following delivery of either saline (control) or R9-NC into the dorsum of the hindpaw, formalin (20 μl of a 5% solution) was injected into the same hindpaw. No effect of R9-NC on phase I of the formalin assay was observed.

Compound: O=C(O)CCCC[C@@H]1SC[C@@H]2NC(=O)N[C@@H]21 [Biotin]
- ALPHA signal (GST-Mint1-PDZ1/2 protein [1]): less than 1,500
- HTRF ratio (GST-Mint1-PDZ1/2 protein [2]): less than 0.04

Compound: RRRRRRRRR [R9, peptide permeant motif, used as control peptide]
- formalin induced phase II behaviors vs PBS (formalin response [3]; 30 min before formalin, phase II 11-60 min): not significantly different
- average d2/d1 ratio (initial rates of FM1-43 destaining) [4]: 0.55±0.15

Compound: RRRRRRRRRHSYHHPDQDHWC [R9-NC]
- side effect when injected in the hindpaw (formalin response [5]): no untoward side effect

Compound: RRRRRRRRRQDHWC [R9-QDHWC, RRRRRRRRRQDHWC]
- adverse effects of delivery of the peptide to rats (formalin response [3]): no apparent adverse effects
